Laboratory results as given in patent publication US20060217368A1, “Drug for nerve regeneration” (Kyowa Hakko Kogyo Co., Ltd., priority 2003, published 2006).

Columns and labels:
Assay type in all cases: cell-based, rat
ANSC-7 cells [1] = assay: Neuropoiesis of ANSC-7 adult neural stem cells: number of Tuj1 positive neurons after induction of differentiation
Procedure: ANSC-7 cells which can be obtained by the method described in Reference Example 2 are plated at 1.8×10^5 cells per well in a 12-well culture dish which was coated with polyornithine and laminin and was filled with a DMEM/F12 medium containing 1 ml of a 1% N2 supplement (manufactured by Invitrogen Corporation) and 20 ng/ml FGF-2 (manufactured by PeproTech Inc.), and incubated overnight. Entire culture fluid is changed into a DMEM/F12 medium containing 0.5% fetal bovine serum and a 1% N2 supplement without including FGF2 (manufactured by Invitrogen Corporation, hereinafter, referred to as differentiation inducing medium) to induce differentiation. Upon the induction, the substance that inhibits the activity of GSK-3 serially diluted in PBS (manufactured by Invitrogen Corporation) or DMSO in the range of from 0.01 mmol/l to […] is added thereto in 1/1000 volume. As a negative control, the same volume of PBS or DMSO is added.
After changing the culture fluid into the differentiation inducing medium supplemented with each substance that inhibits the activity of GSK-3 every three days, and inducing differentiation for 6 days, it is replaced with a 15% neutral buffered formalin solution (Wako Pure Chemical Industries, Ltd.) to allow fixation for 20 min. Thereafter, washing with PBS containing 0.3% Triton X-100 (manufactured by Nacalai Tesque, Inc.) for 5 min is repeated three times. Next, after blocking the cells using a 10% goat fetal serum diluted in PBS (manufactured by DAKO Corporation) for 2 hrs, a reaction is allowed with a mouse anti-Tuj1 (β tubulin isotype III) antibody (manufactured by Sigma-Aldrich Corporation) diluted 1000 times in PBS as a primary antibody at 4° C. for 16 hrs. Thereafter, washing with PBS containing 0.3% Triton X-100 for 5 min is repeated three times.
Next, a reaction is allowed with Alexa Fluor 488 conjugate goat anti-mouse IgG antibody (manufactured by Molecular Probes, Inc.) diluted 1000 times as a secondary antibody at room temperature for 2 hrs. At the same time, Bisbenzimide H 33342 Fluorochrome, Trihydrochloride (manufactured by CALBIOCHEM, hereinafter, described as H33342) is added thereto to give the final concentration of 1 μg/ml to stain the nucleus. After immersing in PBS, observation with an inverted fluorescence microscope (manufactured by Nikon Corporation) is conducted, and the number of Tuj1 positive cells per 2.44 mm^2 is counted.

GSK-3α = assay: Amount of GSK-3α in ANSC-7 cells after siRNA introduction (Western blotting); conditions: 150 pmol per 1×10^6 ANSC-7 cells; 48 hrs following seeding
ANSC-7 cells [2] = assay: Neuropoiesis of ANSC-7 adult neural stem cells: number of Tuj1 positive neurons after induction of differentiation; conditions: siRNA introduced into ANSC-7; day 6
ANSC-7 cells [3] = assay: Suppression of neuropoiesis by associated beta amyloid peptide and relief by GSK-3 inhibitor (Tuj1 positive neurons); conditions: day 6
Procedure: A beta amyloid peptide (hereinafter, referred to as Aβ) is a principal component constituting senile plaques, and it is a substance which has been believed to be a cause of Alzheimer's disease [Proc. Nat. Acad. Sci., USA, 98, 11039-11041 (2001)]. Aβ [1-40] (manufactured by BIOSOURCE) was dissolved in 0.1% (v/v) trifluoroacetic acid (Manufactured by Nacalai Tesque, Inc.) to give 10 mg/ml, and incubated at 25° C. for 1 hour. Thereafter, the solution was diluted in PBS to give 0.5 mg/ml. The diluted solution was incubated at 25° C. for 24 hrs to allow the formation of an associated product [J. Biol. Chem., 276, 42027-42034 (2001)]. […] On day 2 and day 4 following the induction of differentiation, the entire medium was changed to the differentiation inducing medium alone, respectively, and the number of neurons was measured on day 6 following induction of the differentiation.
According to a similar method to that shown in Experimental Example 8, lithiumchloride at a final concentration of 3 mmol/l, or Kenpaullone at a final concentration of 2 μmol/l was added to a differentiation inducing medium containing the associated Aβ at a final concentration of 0.1 mg/ml upon inducing differentiation of the ANSC-7 cell, and the number of Tuj1 positive neurons on day 6 following inducing differentiation was analyzed.

ANSC-7 cells [4] = assay: Apoptosis of ANSC-7 cells (in situ cell death detection kit, fluorescein); conditions: final concentration 0.1 mg/ml; 6 days; vs PBS
Procedure: According to the method described in the above section 7, lithium chloride was added to give the final concentration of 3 mmol/l into the medium containing ANSC-7 cells followed by culture for 6 days. ANSC-7 cells thus cultured after adding lithium chloride, and ANSC-7 cells cultured after adding PBS as a control were allowed to a reaction using an in situ cell death detection kit, fluorescein (manufactured by Roche Diagnostics K.K.) according to the attached protocol. The cells were observed using an inverted fluorescence microscope (manufactured by Nikon Corporation), and the number of apoptotic cell was counted per 2.44 mm^2.
According to a similar method to that shown in Experimental Example 8, ANSC-7 cells subjected to induction of differentiation for 6 days by a differentiation inducing medium containing the associated Aβ at the final concentration of 0.1 mg/ml, and ANSC-7 cells subjected to induction of differentiation by a medium containing PBS as a control were allowed to react using an in situ cell death detection kit, fluorescein (manufactured by Roche Diagnostics K.K.) according to the attached protocol. The cells were observed using an inverted fluorescence microscope (manufactured by Nikon Corporation), and the number of apoptotic cells per 2.44 mm^2 was counted.

[5] = final concentration 2 μmol/l, day 6
[6] = final concentration 5 μmol/l, day 6

## CC[C@H](CO)Nc1nc(NCc2ccccc2)c2ncn(C(C)C)c2n1 [Roscovitine]
ANSC-7 cells [1]; [5]
  number of Tuj1 positive neurons in comparison with the negative control: 1.0 times
ANSC-7 cells [1]; [6]
  number of Tuj1 positive neurons in comparison with the negative control: 1.2 times
ANSC-7 cells [1]; final concentration 10 μmol/l, day 6
  number of Tuj1 positive neurons in comparison with the negative control: 1.1 times

## C=C[C@@]1(C)CC(=O)[C@]2(O)[C@@]3(C)[C@@H](O)CCC(C)(C)[C@@H]3[C@H](O)[C@H](OC(C)=O)[C@@]2(C)O1 [forskolin]
ANSC-7 cells [1]; 1 μmol/l, coexistence with 3 mmol/l lithium chloride
  rate of increase in neurons: 1.2 times
ANSC-7 cells [1]; 1 μmol/l, without lithium chloride
  rate of increase in neurons: 1.9 times
ANSC-7 cells [1]; 5 μmol/l, coexistence with 3 mmol/l lithium chloride
  rate of increase in neurons: 1.1 times
ANSC-7 cells [1]; 5 μmol/l, without lithium chloride
  rate of increase in neurons: 2.2 times

## Cn1cc(C2=C(c3ccc(Cl)cc3Cl)C(=O)NC2=O)c2ccccc21 [SB-216763, 3-(2,4-dichlorophenyl)-4-(1-methylindole-3-yl)-1H-pyrrole-2,5-dione]
ANSC-7 cells [1]; final concentration 0.3 μmol/l, day 6
  number of Tuj1 positive neurons relative to control: 1.2 times
ANSC-7 cells [1]; final concentration 1.0 μmol/l, day 6
  number of Tuj1 positive neurons relative to control: 1.8 times

## siRNA-B2: double stranded siRNA having SEQ ID NO: 16 and 17, specific for GSK-3β (chain 1 GUCUAGCCUAUAUCCAUUCUU; chain 2 GAAUGGAUAUAGGCUAGACUU; listed as RNA, chemistry not given here)
GSK-3α
  amount of GSK-3α: unchanged
ANSC-7 cells [2]
  number of Tuj1 positive neurons in comparison with the negative control siRNA: 1.9 times

## [Cl-].[Na+] [sodium chloride]
ANSC-7 cells [1]; final concentration 0.01 mmol/l, day 6 following induction of differentiation
  number of Tuj1 positive neurons relative to control: 1.0 times
ANSC-7 cells [1]; final concentration 0.1 mmol/l, day 6 following induction of differentiation
  number of Tuj1 positive neurons relative to control: 1.1 times
ANSC-7 cells [1]; final concentration 1 mmol/l, day 6 following induction of differentiation
  number of Tuj1 positive neurons relative to control: 1.2 times
ANSC-7 cells [1]; final concentration 3 mmol/l, day 6 following induction of differentiation
  number of Tuj1 positive neurons relative to control: 1.2 times

## O=C1Cc2c([nH]c3ccc(Br)cc23)-c2ccccc2N1 [Kenpaullone, 9-bromo-7,12-dihydro-indolo[3,2-d][1]benzazepin-6(5H)-one]
ANSC-7 cells [1]; final concentration 0.5 μmol/l, day 6
  number of Tuj1 positive neurons in comparison with the negative control: 1.3 times
ANSC-7 cells [1]; [5]
  number of Tuj1 positive neurons in comparison with the negative control: 2.7 times
ANSC-7 cells [1]; [6]
  number of Tuj1 positive neurons in comparison with the negative control: 3.7 times
ANSC-7 cells [3]; 2 μmol/l with 0.1 mg/ml associated Aβ
  increase in number of Tuj1 positive neurons in comparison with associated Aβ alone: 400%

## siRNA-B1: double stranded siRNA having SEQ ID NO: 14 and 15, specific for GSK-3β (chain 1 GUCAGUUACACAGACACUAUU; chain 2 UAGUGUCUGUGUAACUGACUU; listed as RNA, chemistry not given here)
GSK-3α
  amount of GSK-3α: unchanged
ANSC-7 cells [2]
  number of Tuj1 positive neurons in comparison with the negative control siRNA: 2.5 times

## indirubin-3′-monoxime
ANSC-7 cells [1]; final concentration 1 μmol/l, day 6
  number of Tuj1 positive neurons in comparison with the negative control: 1.4 times

## associated Aβ: beta amyloid peptide Aβ [1-40] incubated to form an associated product
ANSC-7 cells [4]
  increase in number of apoptotic positive cells: 14%
ANSC-7 cells [3]; final concentration 0.1 mg/ml, vs PBS
  decrease in number of Tuj1 positive neurons: 78%
